A word on the IC50: it is the concentration at which inhibition is half-maximal.

From patent publication US7902373B2 (Pfizer Inc, priority 2006, dated 2011) come the findings set out here.

Chain of human recombinant H-PGDS (O60760 whole entry): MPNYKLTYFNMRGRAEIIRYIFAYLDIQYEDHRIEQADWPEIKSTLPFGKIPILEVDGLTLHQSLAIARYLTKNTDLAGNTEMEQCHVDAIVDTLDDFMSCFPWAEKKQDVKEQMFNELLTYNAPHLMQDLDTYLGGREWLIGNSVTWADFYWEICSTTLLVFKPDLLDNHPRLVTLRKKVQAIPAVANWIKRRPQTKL

The assay concerns the target human recombinant H-PGDS (Homo sapiens, UniProt O60760). As to the kind of experiment: Fluorescence intensity h-PGDS TBA enzyme assay. It counts as biochemical. As to conditions: Examples up to 622 (and 3a, 3b).
In the case of `O=C(NC1CCN(Cc2cnn(-c3ccc(F)cc3)c2)CC1)c1ccc(-c2cccc(F)c2)nc1` [Example 275, 6-(3-Fluorophenyl)-N-(1-{[1-(4-fluorophenyl)-1H-pyrazol-4-yl]methyl}piperidin-4-yl)nicotinamide], the IC50 is 5.49 nM.
On to `CCn1cc(CN2CCC(NC(=O)c3ccc(-c4cccc(F)c4)nc3)CC2)c(C)n1` [Example 276, N-{1-[(1-Ethyl-3-methyl-1H-pyrazol-4-yl)methyl]piperidin-4-yl}-6-(3-fluorophenyl)nicotinamide], for which the IC50 is 0.743 nM.
The result for `CN(C)CC1(CN2CCC(NC(=O)c3ccc(-c4cccc(F)c4)nc3)CC2)CCCC1` [Example 277, N-[1-({1-[(Dimethylamino)methyl]cyclopentyl}methyl)piperidin-4-yl]-6-(3-fluorophenyl)nicotinamide] reads 5.72 nM; that for `CC(C)(C)OCCN1CCC(NC(=O)c2ccc(-c3cccc(F)c3)nc2)CC1` [Example 278, N-[1-(2-tert-Butoxyethyl)piperidin-4-yl]-6-(3-fluorophenyl)nicotinamide], 5.01 nM; that for `CC(C)(C)OC(=O)CCCN1CCC(NC(=O)c2ccc(-c3cccc(F)c3)nc2)CC1` [Example 279, tert-Butyl 4-[4-({[6-(3-fluorophenyl)pyridin-3-yl]carbonyl}amino)piperidin-1-yl]butanoate], 4.17 nM.
The result for `CS(=O)(=O)Nc1ccc(CN2CCC(NC(=O)c3ccc(-c4cccc(F)c4)nc3)CC2)cc1` [Example 280, 6-(3-Fluorophenyl)-N-(1-{4-[(methylsulfonyl)amino]benzyl}piperidin-4-yl)nicotinamide] reads 0.851 nM; that for `CC(C)(C)OC(=O)NCCCN1CCC(NC(=O)c2ccc(-c3cccc(F)c3)nc2)CC1` [Example 281, tert-Butyl {3-[4-({[6-(3-fluorophenyl)pyridin-3-yl]carbonyl}amino)piperidin-1-yl]propyl}carbamate], 1.8 nM.
The result for `CNS(=O)(=O)c1ccc(CN2CCC(NC(=O)c3ccc(-c4cccc(F)c4)nc3)CC2)cc1` [Example 282, 6-(3-Fluorophenyl)-N-(1-{4-[(methylamino)sulfonyl]benzyl}piperidin-4-yl)nicotinamide] reads 0.629 nM; that for `Cc1cccc(CN2CCC(NC(=O)c3ccc(-c4cccc(F)c4)nc3)CC2)n1` [Example 283, 6-(3-Fluorophenyl)-N-{1-[(6-methylpyridin-2-yl)methyl]piperidin-4-yl}nicotinamide], 0.5 nM; that for `CCOC(=O)Cn1ccc2cc(CN3CCC(NC(=O)c4ccc(-c5cccc(F)c5)nc4)CC3)ccc21` [Example 284, Ethyl (5-{[4-({[6-(3-fluorophenyl)pyridin-3-yl]carbonyl}amino)piperidin-1-yl]methyl}-1H-indol-1-yl)acetate], 1.43 nM.
For `COc1ccccc1C1(CN2CCC(NC(=O)c3ccc(-c4cccc(F)c4)nc3)CC2)CCOCC1` [Example 285, 6-(3-Fluorophenyl)-N-(1-{[4-(2-methoxyphenyl)tetrahydro-2H-pyran-4-yl]methyl}piperidin-4-yl)nicotinamide], the 50% inhibitory concentration (IC50) amounted to 1.53 nM.
The result for `COc1cccc(C2(CN3CCC(NC(=O)c4ccc(-c5cccc(F)c5)nc4)CC3)CCOCC2)c1` [Example 286, 6-(3-Fluorophenyl)-N-(1-{[4-(3-methoxyphenyl)tetrahydro-2H-pyran-4-yl]methyl}piperidin-4-yl)nicotinamide] reads 1.21 nM; that for `Cc1c(CN2CCC(NC(=O)c3ccc(-c4cccc(F)c4)nc3)CC2)cnn1C` [Example 287, N-{1-[(1,5-dimethyl-1H-pyrazol-4-yl)methyl]piperidin-4-yl}-6-(3-fluorophenyl)nicotinamide], 3 nM; that for `O=C(NC1CCN(Cc2ccc3nsnc3c2)CC1)c1ccc(-c2cccc(F)c2)nc1` [Example 288, N-[1-(2,1,3-Benzothiadiazol-5-ylmethyl)piperidin-4-yl]-6-(3-fluorophenyl)nicotinamide], 1.25 nM.
The result for `O=C(NC1CCN(Cc2cnc(-c3ccccc3)s2)CC1)c1ccc(-c2cccc(F)c2)nc1` [Example 289, 6-(3-Fluorophenyl)-N-{1-[(2-phenyl-1,3-thiazol-5-yl)methyl]piperidin-4-yl}nicotinamide] reads 2.09 nM; that for `O=C(NC1CCN(Cc2ccc3ncccc3c2)CC1)c1ccc(-c2cccc(F)c2)nc1` [Example 290, 6-(3-Fluorophenyl)-N-[1-(quinolin-6-ylmethyl)piperidin-4-yl]nicotinamide], 0.843 nM; that for `CCOc1cccc(CN2CCC(NC(=O)c3ccc(-c4cccc(F)c4)nc3)CC2)c1` [Example 291, N-[1-(3-Ethoxybenzyl)piperidin-4-yl]-6-(3-fluorophenyl)nicotinamide], 1.17 nM.
In the case of `O=C(NC1CCN(Cc2ccccc2OC(F)F)CC1)c1ccc(-c2cccc(F)c2)nc1` [Example 292, N-{1-[2-(Difluoromethoxy)benzyl]piperidin-4-yl}-6-(3-fluorophenyl)nicotinamide], the IC50 turned out to be 0.465 nM.
As for `CC(CCC#N)(CN1CCC(NC(=O)c2ccc(-c3cccc(F)c3)nc2)CC1)c1ccccc1` (stereo not shown) [Example 293, N-[1-(4-Cyano-2-methyl-2-phenylbutyl)piperidin-4-yl]-6-(3-fluorophenyl)nicotinamide], the IC50 is 0.592 nM.
Regarding `O=C(NC1CCN(Cc2c[nH]cn2)CC1)c1ccc(-c2cccc(F)c2)nc1` [Example 294, 6-(3-Fluorophenyl)-N-[1-(1H-imidazol-4-ylmethyl)piperidin-4-yl]nicotinamide], the half-maximal inhibitory concentration (IC50) came to 1.76 nM.
The result for `COc1ccc(F)cc1CN1CCC(NC(=O)c2ccc(-c3cccc(F)c3)nc2)CC1` [Example 295, N-[1-(5-Fluoro-2-methoxybenzyl)piperidin-4-yl]-6-(3-fluorophenyl)nicotinamide] reads 0.506 nM; that for `Cc1nc[nH]c1CN1CCC(NC(=O)c2ccc(-c3cccc(F)c3)nc2)CC1` [Example 296, 6-(3-Fluorophenyl)-N-{1-[(4-methyl-1H-imidazol-5-yl)methyl]piperidin-4-yl}nicotinamide], 1.4 nM.
The result for `COc1cc(CN2CCC(NC(=O)c3ccc(-c4cccc(F)c4)nc3)CC2)cc(OC)c1` [Example 297, N-[1-(3,5-Dimethoxybenzyl)piperidin-4-yl]-6-(3-fluorophenyl)nicotinamide] reads 1.25 nM; that for `CC(C)(C)CCN1CCC(NC(=O)c2ccc(-c3cccc(F)c3)nc2)CC1` [Example 298, N-[1-(3,3-Dimethylbutyl)piperidin-4-yl]-6-(3-fluorophenyl)nicotinamide], 0.939 nM.
The result for `O=C(NC1CCN(Cc2ccccc2Cl)CC1)c1ccc(-c2cccc(F)c2)nc1` [Example 299, N-[1-(2-Chlorobenzyl)piperidin-4-yl]-6-(3-fluorophenyl)nicotinamide] reads 0.308 nM; that for `O=C(NC1CCN(Cc2ncc[nH]2)CC1)c1ccc(-c2cccc(F)c2)nc1` [Example 300, 6-(3-Fluorophenyl)-N-[1-(1H-imidazol-2-ylmethyl)piperidin-4-yl]nicotinamide], 0.362 nM; that for `O=C(NC1CCN(CCCc2ccccc2)CC1)c1ccc(-c2cccc(F)c2)nc1` [Example 301, 6-(3-Fluorophenyl)-N-[1-(3-phenylpropyl)piperidin-4-yl]nicotinamide], 1.16 nM.
`Cc1cc(CN2CCC(NC(=O)c3ccc(-c4cccc(F)c4)nc3)CC2)ccc1F` [Example 302, N-[1-(4-Fluoro-3-methylbenzyl)piperidin-4-yl]-6-(3-fluorophenyl)nicotinamide]: the IC50 was found to be 0.636 nM.
The result for `N#Cc1cc(CN2CCC(NC(=O)c3ccc(-c4cccc(F)c4)nc3)CC2)ccc1F` [Example 303, N-[1-(3-Cyano-4-fluorobenzyl)piperidin-4-yl]-6-(3-fluorophenyl)nicotinamide] reads 0.662 nM; that for `O=C(NC1CCN(Cc2ccc3[nH]ccc3c2)CC1)c1ccc(-c2cccc(F)c2)nc1` [Example 304, 6-(3-Fluorophenyl)-N-[1-(1H-indol-5-ylmethyl)piperidin-4-yl]nicotinamide], 2.11 nM; that for `COc1cc(C)cc(OC)c1CN1CCC(NC(=O)c2ccc(-c3cccc(F)c3)nc2)CC1` [Example 305, N-[1-(2,6-Dimethoxy-4-methylbenzyl)piperidin-4-yl]-6-(3-fluorophenyl)nicotinamide], 2.7 nM.
The result for `CCOc1cc(OC)ccc1CN1CCC(NC(=O)c2ccc(-c3cccc(F)c3)nc2)CC1` [Example 306, N-[1-(2-Ethoxy-4-methoxybenzyl)piperidin-4-yl]-6-(3-fluorophenyl)nicotinamide] reads 2.71 nM; that for `Cc1ccc(-c2n[nH]cc2CN2CCC(NC(=O)c3ccc(-c4cccc(F)c4)nc3)CC2)cc1` [Example 307, 6-(3-Fluorophenyl)-N-(1-{[3-(4-methylphenyl)-1H-pyrazol-4-yl]methyl}piperidin-4-yl)nicotinamide], 0.784 nM.
With `N#Cc1ccc(Oc2ccc(CN3CCC(NC(=O)c4ccc(-c5cccc(F)c5)nc4)CC3)cn2)cc1` [Example 308, N-(1-{[6-(4-Cyanophenoxy)pyridin-3-yl]methyl}piperidin-4-yl)-6-(3-fluorophenyl)nicotinamide], the IC50 was 2.03 nM.
As for `O=C(NC1CCN(CC2=C(Cl)c3cc(F)ccc3OC2)CC1)c1ccc(-c2cccc(F)c2)nc1` [Example 309, N-(1-[(4-Chloro-6-fluoro-2H-chromen-3-yl)methyl]piperidin-4-yl)-6-(3-fluorophenyl)nicotinamide], the IC50 amounted to 4.32 nM.
As for `O=C(NC1CCN(Cc2cc(=O)[nH]c(=O)[nH]2)CC1)c1ccc(-c2cccc(F)c2)nc1` [Example 310, N-{1-[(2,6-Dioxo-1,2,3,6-tetrahydropyrimidin-4-yl)methyl]piperidin-4-yl)-6-(3-fluorophenyl)nicotinamide], the IC50 is 4.78 nM.
The result for `COC(=O)c1ccc2[nH]cc(CN3CCC(NC(=O)c4ccc(-c5cccc(F)c5)nc4)CC3)c2c1` [Example 311, Methyl 3-{[4-({[6-(3-fluorophenyl)pyridin-3-yl]carbonyl}amino)piperidin-1-yl]methyl}-1H-indole-5-carboxylate] reads 1.72 nM.
